Reference: US20070049593A1 (priority 2004, published 2007)
Structures can show the parent of a compound that is named as a salt.

Molecular target: T1, HCV polymerase (Hepatitis C virus genotype 1b, UniProt P26663)
T1 construct: a region encoding NS5B (J Virol 1991 March, 65(3), 1105-13, 544 amino acids after deletion of 47 amino acids on the C-terminal); 6xHis (C); made in house; host or cells: Escherichia coli
Assay: biochemical
Set-up: species or system HCV BK strain
Conditions: not given
Method in brief: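 His-tagged NS5B (BK strain, 47-aa C-terminal deletion, E. coli-expressed) at 0.5 μg/ml copied 5 μg/ml run-off RNA bearing the HCV 3′ UTR with 2 μM UTP plus [3H]UTP, 50 μM ATP/GTP, in pH 7.5 Tris with 5 mM MgCl2, 25 °C, 90 min. TCA-precipitated RNA was counted and IC50 calculated.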

T1 sequence (P26663 2420-2963): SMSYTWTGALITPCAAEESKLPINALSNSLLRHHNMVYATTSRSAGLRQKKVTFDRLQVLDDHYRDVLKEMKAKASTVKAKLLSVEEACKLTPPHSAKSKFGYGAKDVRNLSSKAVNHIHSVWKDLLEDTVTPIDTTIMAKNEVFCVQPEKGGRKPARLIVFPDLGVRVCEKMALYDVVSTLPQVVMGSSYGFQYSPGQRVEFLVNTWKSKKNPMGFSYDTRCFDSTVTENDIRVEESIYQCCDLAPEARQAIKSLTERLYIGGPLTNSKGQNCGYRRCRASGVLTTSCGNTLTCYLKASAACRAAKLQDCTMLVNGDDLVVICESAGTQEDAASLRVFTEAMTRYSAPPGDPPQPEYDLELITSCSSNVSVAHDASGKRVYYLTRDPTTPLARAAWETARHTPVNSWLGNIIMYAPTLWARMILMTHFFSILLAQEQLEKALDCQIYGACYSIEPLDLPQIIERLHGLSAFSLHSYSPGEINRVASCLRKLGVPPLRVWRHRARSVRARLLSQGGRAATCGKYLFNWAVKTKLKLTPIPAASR

Structure (SMILES)	IC50 [µM]
CCC1CN(CCN2CCn3c(c(C4CCCCC4)c4ccc(C(=O)O)cc43)-c3ccc(C)cc32)CCO1 (centres unmarked) [Example 1-291, 13-cyclohexyl-5-[2-(2-ethylmorpholin-4-yl)ethyl]-3-methyl-6,7-dihydro-5H-benzo[5,6][1,4]diazepino[7,1-a]indole-10-carboxylic acid dihydrochloride]	< 0.1
CCC1COCCN1CCN1CCn2c(c(C3CCCCC3)c3ccc(C(=O)O)cc32)-c2ccc(C)cc21 (centres unmarked) [Example 1-292, 13-cyclohexyl-5-[2-(3-ethylmorpholin-4-yl)ethyl]-3-methyl-6,7-dihydro-5H-benzo[5,6][1,4]diazepino[7,1-a]indole-10-carboxylic acid dihydrochloride]	< 0.1
COCC1CCCN(CCN2CCn3c(c(C4CCCCC4)c4ccc(C(=O)O)cc43)-c3ccc(Cl)cc32)C1 (centres unmarked) [Example 1-293, 3-chloro-13-cyclohexyl-5-[2-(3-methoxymethylpiperidin-1-yl)ethyl]-6,7-dihydro-5H-benzo[5,6][1,4]diazepino[7,1-a]indole-10-carboxylic acid dihydrochloride]	< 0.1
CCc1ccc2c(c1)N(CCN1CCCCC1)CCn1c-2c(C2CCCCC2)c2ccc(C(=O)O)cc21 [Example 1-295, 13-cyclohexyl-3-ethyl-5-[2-(piperidin-1-yl)ethyl]-6,7-dihydro-5H-benzo[5,6][1,4]diazepino[7,1-a]indole-10-carboxylic acid dihydrochloride]	< 0.1
CC(C)c1ccc2c(c1)N(CCN1CCCCC1)CCn1c-2c(C2CCCCC2)c2ccc(C(=O)O)cc21 [Example 1-296, 13-cyclohexyl-3-isopropyl-5-[2-(piperidin-1-yl)ethyl]-6,7-dihydro-5H-benzo[5,6][1,4]diazepino[7,1-a]indole-10-carboxylic acid dihydrochloride]	< 0.1
CSc1ccc2c(c1)N(CCCN1CCCCC1)CCn1c-2c(C2CCCCC2)c2ccc(C(=O)O)cc21 [Example 1-297, 13-cyclohexyl-3-methylsulfanyl-5-[3-(piperidin-1-yl)propyl]-6,7-dihydro-5H-benzo[5,6][1,4]diazepino[7,1-a]indole-10-carboxylic acid dihydrochloride]	< 0.1
Cc1ccc2c(c1)N(CCCN1CCCCC1)CCn1c-2c(C2CCCCC2)c2ccc(C(=O)O)cc21 [Example 1-298, 13-cyclohexyl-3-methyl-5-[3-(piperidin-1-yl)propyl]-6,7-dihydro-5H-benzo[5,6][1,4]diazepino[7,1-a]indole-10-carboxylic acid dihydrochloride]	< 0.1
Cc1ccc2c(c1)N(CCCN1CCCC1)CCn1c-2c(C2CCCCC2)c2ccc(C(=O)O)cc21 [Example 1-299, 13-cyclohexyl-3-methyl-5-[3-(pyrrolidin-1-yl)propyl]-6,7-dihydro-5H-benzo[5,6][1,4]diazepino[7,1-a]indole-10-carboxylic acid dihydrochloride]	< 0.1
Cc1ccc2c(c1)N(CCCN1CCCCCC1)CCn1c-2c(C2CCCCC2)c2ccc(C(=O)O)cc21 [Example 1-300, 5-[3-(azepan-1-yl)propyl]-13-cyclohexyl-3-methyl-6,7-dihydro-5H-benzo[5,6][1,4]diazepino[7,1-a]indole-10-carboxylic acid dihydrochloride]	< 0.1
Cc1ccc2c(c1)N(CCCN(C)C)CCn1c-2c(C2CCCCC2)c2ccc(C(=O)O)cc21 [Example 1-301, 13-cyclohexyl-5-(3-dimethylaminopropyl)-3-methyl-6,7-dihydro-5H-benzo[5,6][1,4]diazepino[7,1-a]indole-10-carboxylic acid dihydrochloride]	< 0.1
CCN(CC)CCCN1CCn2c(c(C3CCCCC3)c3ccc(C(=O)O)cc32)-c2ccc(Cl)cc21 [Example 1-302, 3-chloro-13-cyclohexyl-5-(3-diethylaminopropyl)-6,7-dihydro-5H-benzo[5,6][1,4]diazepino[7,1-a]indole-10-carboxylic acid dihydrochloride]	< 0.1
CSc1ccc2c(c1)N(CCN1CCCC1)CCn1c-2c(C2CCCCC2)c2ccc(C(=O)O)cc21 [Example 1-303, 13-cyclohexyl-3-methylsulfanyl-5-[2-(pyrrolidin-1-yl)ethyl]-6,7-dihydro-5H-benzo[5,6][1,4]diazepino[7,1-a]indole-10-carboxylic acid dihydrochloride]	< 0.1
COCC1CCCCN1CCN1CCn2c(c(C3CCCCC3)c3ccc(C(=O)O)cc32)-c2ccc(Cl)cc21 (centres unmarked) [Example 1-304, 3-chloro-13-cyclohexyl-5-[2-(2-methoxymethylpiperidin-1-yl)ethyl]-6,7-dihydro-5H-benzo[5,6][1,4]diazepino[7,1-a]indole-10-carboxylic acid dihydrochloride]	< 0.1
COCC1CCCCN1CCN1CCn2c(c(C3CCCCC3)c3ccc(C(=O)O)cc32)-c2ccc(C)cc21 (centres unmarked) [Example 1-305, 13-cyclohexyl-5-[2-(2-methoxymethylpiperidin-1-yl)ethyl]-3-methyl-6,7-dihydro-5H-benzo[5,6][1,4]diazepino[7,1-a]indole-10-carboxylic acid dihydrochloride]	< 0.1
COCCC1CCCN(CCN2CCn3c(c(C4CCCCC4)c4ccc(C(=O)O)cc43)-c3ccccc32)C1 (centres unmarked) [Example 1-306, 13-cyclohexyl-5-{2-[3-(2-methoxyethyl)piperidin-1-yl]ethyl}-6,7-dihydro-5H-benzo[5,6][1,4]diazepino[7,1-a]indole-10-carboxylic acid dihydrochloride]	< 0.1
COCCC1CCCN(CCN2CCn3c(c(C4CCCCC4)c4ccc(C(=O)O)cc43)-c3ccc(Cl)cc32)C1 (centres unmarked) [Example 1-307, 3-chloro-13-cyclohexyl-5-{2-[3-(2-methoxyethyl)piperidin-1-yl]ethyl}-6,7-dihydro-5H-benzo[5,6][1,4]diazepino[7,1-a]indole-10-carboxylic acid dihydrochloride]	< 0.1
COCCC1CCCN(CCN2CCn3c(c(C4CCCCC4)c4ccc(C(=O)O)cc43)-c3ccc(C)cc32)C1 (centres unmarked) [Example 1-308, 13-cyclohexyl-5-{2-[3-(2-methoxyethyl)piperidin-1-yl]ethyl}-3-methyl-6,7-dihydro-5H-benzo[5,6][1,4]diazepino[7,1-a]indole-10-carboxylic acid dihydrochloride]	< 0.1
CN(C)CCN1CCn2c(c(C3CCCCC3)c3ccc(C(=O)O)cc32)-c2ccc(OCc3cc(S(C)(=O)=O)ccc3N3CCOCC3)cc21 [Example 1-309, 13-cyclohexyl-5-(2-dimethylaminoethyl)-3-[5-methanesulfonyl-2-(morpholin-4-yl)benzyloxy]-6,7-dihydro-5H-benzo[5,6][1,4]diazepino[7,1-a]indole-10-carboxylic acid trihydrochloride]	< 0.1
COC(=O)Oc1ccc2c(c1)N(CCN(C)C)CCn1c-2c(C2CCCCC2)c2ccc(C(=O)O)cc21 [Example 1-310, 13-cyclohexyl-5-(2-dimethylaminoethyl)-3-methoxycarbonyloxy-6,7-dihydro-5H-benzo[5,6][1,4]diazepino[7,1-a]indole-10-carboxylic acid dihydrochloride]	< 0.1
CN(C)CCN1CCn2c(c(C3CCCCC3)c3ccc(C(=O)O)cc32)-c2ccc(Oc3ccccc3)cc21 [Example 1-311, 13-cyclohexyl-5-(2-dimethylaminoethyl)-3-phenoxy-6,7-dihydro-5H-benzo[5,6][1,4]diazepino[7,1-a]indole-10-carboxylic acid dihydrochloride]	< 0.1
CN1CCCCC1CCN1CCn2c(c(C3CCCCC3)c3ccc(C(=O)O)cc32)-c2ccc(Cl)cc21 (centres unmarked) [Example 1-312, 3-chloro-13-cyclohexyl-5-[2-(1-methylpiperidin-2-yl)ethyl]-6,7-dihydro-5H-benzo[5,6][1,4]diazepino[7,1-a]indole-10-carboxylic acid dihydrochloride]	< 0.1
COCC1CCN(CCN2CCn3c(c(C4CCCCC4)c4ccc(C(=O)O)cc43)-c3ccc(Cl)cc32)CC1 [Example 1-314, 3-chloro-13-cyclohexyl-5-[2-(4-methoxymethylpiperidin-1-yl)ethyl]-6,7-dihydro-5H-benzo[5,6][1,4]diazepino[7,1-a]indole-10-carboxylic acid dihydrochloride]	< 0.1
COCC1CCN(CCN2CCn3c(c(C4CCCCC4)c4ccc(C(=O)O)cc43)-c3ccc(C)cc32)CC1 [Example 1-315, 13-cyclohexyl-5-[2-(4-methoxymethylpiperidin-1-yl)ethyl]-3-methyl-6,7-dihydro-5H-benzo[5,6][1,4]diazepino[7,1-a]indole-10-carboxylic acid dihydrochloride]	< 0.1
COC[C@H]1CCCN1CCN1CCn2c(c(C3CCCCC3)c3ccc(C(=O)O)cc32)-c2ccccc21 [Example 1-316, 13-cyclohexyl-5-[2-((R)-2-methoxymethylpyrrolidin-1-yl)ethyl]-6,7-dihydro-5H-benzo[5,6][1,4]diazepino[7,1-a]indole-10-carboxylic acid dihydrochloride]	< 0.1
CCN1CCC(OCCN2CCn3c(c(C4CCCCC4)c4ccc(C(=O)O)cc43)-c3ccc(Cl)cc32)CC1 [Example 1-317, 3-chloro-13-cyclohexyl-5-[2-(1-ethylpiperidin-4-yloxy)ethyl]-6,7-dihydro-5H-benzo[5,6][1,4]diazepino[7,1-a]indole-10-carboxylic acid dihydrochloride]	< 0.1

Same assay, conditions: 25° C., 90 min; [5,6-3H]UTP incorporation into RNA; read-out: HCV polymerase inhibitory activity IC50

Structure (SMILES)	IC50 [µM]
COCC1CCCN(CCN2CCn3c(c(C4CCCCC4)c4ccc(C(=O)O)cc43)-c3ccc(C)cc32)C1 (centres unmarked) [Example 1-294, 13-cyclohexyl-5-[2-(3-methoxymethylpiperidin-1-yl)ethyl]-3-methyl-6,7-dihydro-5H-benzo[5,6][1,4]diazepino[7,1-a]indole-10-carboxylic acid dihydrochloride]	< 0.1
